In US20230085307A1, “PYRIDAZINONE COMPOUND AND HERBICIDE” (NISSAN CHEMICAL CORPORATION, priority 2019, published 2023):

Tests used:
Italian ryegrass [1] = assay: Test Example 5: herbicidal effect by foliage application, plastic box (Table 20, symbol K); type: in vivo, Italian ryegrass (Lolium multiflorum); conditions: foliage application, 320 g/ha, 3 weeks after application
In short: (§1)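 Post-emergence foliar test in sterilized diluvial soil. Compound applied as water-diluted emulsion at a predetermined rate to 14-day-old plants; evaluation at three weeks.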

windgrass = assay: Test Example 5: herbicidal effect by foliage application, plastic box (Table 20, symbol L); type: in vivo, windgrass (Apera spica-venti); conditions: foliage application, 320 g/ha, 3 weeks after application
In short: as §1

wild oat [2] = assay: Test Example 4: herbicidal effect by soil treatment (Table 19, symbol I); type: in vivo, wild oat (Avena fatua); conditions: AAH 320 g/ha
In short: (§2)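 Scoring uses the grading scale of an earlier test, three weeks post-application. Treatment consists of spraying a diluted emulsion formulation across the surface of sterilized diluvial soil in which seeds are buried near 1.5 cm deep; boxes are kept in a greenhouse between 25° C. and 30° C.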

southern crabgrass [3] = assay: Test Example 4: herbicidal effect by soil treatment (Table 19, symbol F); type: in vivo, southern crabgrass (Digitaria ciliaris); conditions: AAH 320 g/ha
In short: as §2

barnyard grass [4] = assay: Test Example 5: herbicidal effect by foliage application, plastic box (Table 20, symbol H); type: in vivo, barnyard grass (Echinochloa crus-galli); conditions: foliage application, 320 g/ha, 3 weeks after application
In short: as §1

Japanese bulrush = assay: Test Example 2: herbicidal activity, application during weed generation under submerged conditions (Table 17, symbol B); type: in vivo, Japanese bulrush (Schoenoplectus juncoides); conditions: AAH 320 g/ha; application during weed generation, submerged conditions
In short: (§3)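 Mixed weed seedlings in alluvial soil under a 4 cm water layer, greenhouse-grown at 25–30° C. Compound given as a diluted emulsion into the floodwater at the 1–2 leaf stage; response graded after three weeks.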

late watergrass = assay: Test Example 2: herbicidal activity, application during weed generation under submerged conditions (Table 17, symbol A); type: in vivo, late watergrass (Echinochloa oryzicola); conditions: AAH 320 g/ha; application during weed generation, submerged conditions
In short: as §3

blackgrass = assay: Test Example 5: herbicidal effect by foliage application, plastic box (Table 20, symbol J); type: in vivo, blackgrass (Alopecurus myosuroides); conditions: foliage application, 320 g/ha, 3 weeks after application
In short: as §1

lambsquarters [5] = assay: Test Example 5: herbicidal effect by foliage application, plastic box (Table 20, symbol O); type: in vivo, lambsquarters (Chenopodium album); conditions: foliage application, 320 g/ha, 3 weeks after application
In short: as §1

lambsquarters [6] = assay: Test Example 4: herbicidal effect by soil treatment (Table 19, symbol O); type: in vivo, lambsquarters (Chenopodium album); conditions: AAH 320 g/ha
In short: as §2

rice flat sedge = assay: Test Example 3: herbicidal effect by foliage application, Wagner pot (Table 18, symbol E); type: in vivo, rice flat sedge (Cyperus iria); conditions: 320 g/ha
In short: (§4)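 Plants were sown in alluvial soil held under 0.1–0.5 cm standing water and grown 14 days in a greenhouse at 25–30 °C. An emulsifiable formulation, water-diluted to the set dose, was then sprayed onto the foliage, and effects were scored three weeks later using previously defined criteria.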

Italian ryegrass [7] = assay: Test Example 4: herbicidal effect by soil treatment (Table 19, symbol K); type: in vivo, Italian ryegrass (Lolium multiflorum); conditions: AAH 320 g/ha
In short: as §2

southern crabgrass [8] = assay: Test Example 5: herbicidal effect by foliage application, plastic box (Table 20, symbol F); type: in vivo, southern crabgrass (Digitaria ciliaris); conditions: foliage application, 320 g/ha, 3 weeks after application
In short: as §1

barnyard grass [9] = assay: Test Example 3: herbicidal effect by foliage application, Wagner pot (Table 18, symbol H); type: in vivo, barnyard grass (Echinochloa crus-galli); conditions: 320 g/ha
In short: as §4

green foxtail = assay: Test Example 4: herbicidal effect by soil treatment (Table 19, symbol G); type: in vivo, green foxtail (Setaria viridis); conditions: AAH 320 g/ha
In short: as §2

velvetleaf = assay: Test Example 4: herbicidal effect by soil treatment (Table 19, symbol M); type: in vivo, velvetleaf (Abutilon theophrasti); conditions: AAH 320 g/ha
In short: as §2

persian speedwell = assay: Test Example 5: herbicidal effect by foliage application, plastic box (Table 20, symbol R); type: in vivo, Persian speedwell (Veronica persica); conditions: foliage application, 320 g/ha, 3 weeks after application
In short: as §1

wild oat [10] = assay: Test Example 5: herbicidal effect by foliage application, plastic box (Table 20, symbol I); type: in vivo, wild oat (Avena fatua); conditions: foliage application, 320 g/ha, 3 weeks after application
In short: as §1

chickweed = assay: Test Example 4: herbicidal effect by soil treatment (Table 19, symbol P); type: in vivo, common chickweed (Stellaria media); conditions: AAH 320 g/ha
In short: as §2

barnyard grass [11] = assay: Test Example 4: herbicidal effect by soil treatment (Table 19, symbol H); type: in vivo, barnyard grass (Echinochloa crus-galli); conditions: AAH 320 g/ha
In short: as §2

redroot pigweed = assay: Test Example 4: herbicidal effect by soil treatment (Table 19, symbol N); type: in vivo, redroot pigweed (Amaranthus retroflexus); conditions: AAH 320 g/ha
In short: as §2

SMILES	effect on Italian ryegrass (K) (Italian ryegrass [1])	effect on windgrass (L) (windgrass)	I: wild oat, herbicidal effect rating (wild oat [2])	F: southern crabgrass, herbicidal effect rating (southern crabgrass [3])	effect on barnyard grass (H) (barnyard grass [4])	herbicidal effect rating, B: Japanese bulrush (Japanese bulrush)	herbicidal effect rating, A: late watergrass (late watergrass)	effect on blackgrass (J) (blackgrass)	effect on lambsquarters (O) (lambsquarters [5])	O: lambsquarters, herbicidal effect rating (lambsquarters [6])	herbicidal effect on E (rice flat sedge), rating 0-5 (rice flat sedge)	K: Italian ryegrass, herbicidal effect rating (Italian ryegrass [7])	effect on southern crabgrass (F) (southern crabgrass [8])	herbicidal effect on H (barnyard grass), rating 0-5 (barnyard grass [9])	G: green foxtail, herbicidal effect rating (green foxtail)	M: velvetleaf, herbicidal effect rating (velvetleaf)	effect on persian speedwell (R) (persian speedwell)	effect on wild oat (I) (wild oat [10])	P: chickweed, herbicidal effect rating (chickweed)	H: barnyard grass, herbicidal effect rating (barnyard grass [11])	further results
Cc1nn(C)c(=O)c(-c2c(-c3ccc(OCCC(F)(F)F)cc3)sc3ccccc23)c1O [1-206]	5 (Herbicidal rate of 90% or more (almost completely withered))	5 (Herbicidal rate of 90% or more (almost completely withered))	0 (Herbicidal rate of 5% or less (almost no effect))	4 (Herbicidal rate of 70% or more and less than 90%)	5 (Herbicidal rate of 90% or more (almost completely withered))	3 (Herbicidal rate of 40% or more and less than 70%)	5 (Herbicidal rate of 90% or more (almost completely withered))	5 (Herbicidal rate of 90% or more (almost completely withered))	5 (Herbicidal rate of 90% or more (almost completely withered))	5 (Herbicidal rate of 90% or more (almost completely withered))	5 (Herbicidal rate of 90% or more (almost completely withered))	5 (Herbicidal rate of 90% or more (almost completely withered))	5 (Herbicidal rate of 90% or more (almost completely withered))	5 (Herbicidal rate of 90% or more (almost completely withered))	5 (Herbicidal rate of 90% or more (almost completely withered))	3 (Herbicidal rate of 40% or more and less than 70%)	5 (Herbicidal rate of 90% or more (almost completely withered))	2 (Herbicidal rate of 20% or more and less than 40%)	3 (Herbicidal rate of 40% or more and less than 70%)	5 (Herbicidal rate of 90% or more (almost completely withered))	N: redroot pigweed, herbicidal effect rating (redroot pigweed): 5 (Herbicidal rate of 90% or more (almost completely withered))
C=C(C)COc1ccc(-c2sc3ccccc3c2-c2c(O)c(C)nn(C)c2=O)cc1 [1-208]	5 (Herbicidal rate of 90% or more (almost completely withered))	4 (Herbicidal rate of 70% or more and less than 90%)	0 (Herbicidal rate of 5% or less (almost no effect))	0 (Herbicidal rate of 5% or less (almost no effect))	5 (Herbicidal rate of 90% or more (almost completely withered))	3 (Herbicidal rate of 40% or more and less than 70%)	5 (Herbicidal rate of 90% or more (almost completely withered))	4 (Herbicidal rate of 70% or more and less than 90%)	5 (Herbicidal rate of 90% or more (almost completely withered))	0 (Herbicidal rate of 5% or less (almost no effect))	4 (Herbicidal rate of 70% or more and less than 90%)	4 (Herbicidal rate of 70% or more and less than 90%)	5 (Herbicidal rate of 90% or more (almost completely withered))	5 (Herbicidal rate of 90% or more (almost completely withered))	0 (Herbicidal rate of 5% or less (almost no effect))	0 (Herbicidal rate of 5% or less (almost no effect))	5 (Herbicidal rate of 90% or more (almost completely withered))	4 (Herbicidal rate of 70% or more and less than 90%)	3 (Herbicidal rate of 40% or more and less than 70%)	0 (Herbicidal rate of 5% or less (almost no effect))	N: redroot pigweed, herbicidal effect rating (redroot pigweed): 0 (Herbicidal rate of 5% or less (almost no effect))
C=C(Br)COc1ccc(-c2sc3ccccc3c2-c2c(O)c(C)nn(C)c2=O)cc1 [1-215]	4 (Herbicidal rate of 70% or more and less than 90%)	5 (Herbicidal rate of 90% or more (almost completely withered))	0 (Herbicidal rate of 5% or less (almost no effect))	0 (Herbicidal rate of 5% or less (almost no effect))	5 (Herbicidal rate of 90% or more (almost completely withered))	3 (Herbicidal rate of 40% or more and less than 70%)	3 (Herbicidal rate of 40% or more and less than 70%)	2 (Herbicidal rate of 20% or more and less than 40%)	5 (Herbicidal rate of 90% or more (almost completely withered))	3 (Herbicidal rate of 40% or more and less than 70%)	5 (Herbicidal rate of 90% or more (almost completely withered))	0 (Herbicidal rate of 5% or less (almost no effect))	2 (Herbicidal rate of 20% or more and less than 40%)	5 (Herbicidal rate of 90% or more (almost completely withered))	0 (Herbicidal rate of 5% or less (almost no effect))	0 (Herbicidal rate of 5% or less (almost no effect))	5 (Herbicidal rate of 90% or more (almost completely withered))	3 (Herbicidal rate of 40% or more and less than 70%)	1 (Herbicidal rate of 5% or more and less than 20%)	0 (Herbicidal rate of 5% or less (almost no effect))	N: redroot pigweed, herbicidal effect rating (redroot pigweed): 5 (Herbicidal rate of 90% or more (almost completely withered))
